Laboratory results published in US8557565B2, “Degradation of polycyclic aromatic hydrocarbons to render them available for biodegradation” (priority 1999, dated 2013).
Each block holds one compound with its values, some of them ahead of it.

Key:
[1] = Ozonation reaction kinetics of spilt oil constituents in bipolar solvent; type: physicochemical; details: for tentative estimated pseudo-first-order rate constant k′: ozonation of spilt oil (480 mg/L) in n-heptane/acetic acid 1:1 bipolar solvent, about 20° C.; for behaviour under ozonation in the bipolar solvent: spilt oil constituents
Description: In this work example, an innovative treatment is developed for spilt oils from southern Kuwait desert that involves ozonation in a homogeneous solvent system. The solvent is constituted of miscible n-heptane and acetic acid (1:1 by volume), both of that are relatively inexpensive, environmentally benign, and biodegradable. The solvent system allows dissolution of oil in its non-polar heptane constituent, while the hydrophilic acetic acid keeps the progressively more polar intermediates and byproducts being formed from ozonation of oil in solution as the reaction continues. The n-heptane and acetic acid were chosen because of their relatively slow reaction rate with ozone (kO3[M^−1 s^−1] about 10^−3˜1 for alkanes and 3×10^−5 for acetic acid.
The amount of oil to be employed in the bipolar solution was determined by its solubility in n-heptane and bipolar solvent.
The pseudo-first order rate constants were evaluated by linear regression of all data according to the equations given below. The reaction of ozone with contaminants can be expressed as a second order reaction: −dCA/dt=kCA[O3] (1) where: dCA/dt=rate of reaction of contaminant k=reaction rate constant CA=concentration of contaminant [O3]=concentration of ozone
In the present of excess and constant ozone concentration, the rate law for the reaction can be considered as pseudo-first order: −dCA/dt=k′CA (2)
A glass batch reactor with a working volume of 300 mL was used. Mixing in the reactor was provided by a magnetic mixer operating at 250 rpm. […] Ozone was sparged into the reactor near the bottom through a glass dispersion tube (ACE glass Inc.) Reaction batches were stopped after 0.25, 0.5, 1, 2, 3, 4, 5, 10, 20, 40, 60, 120, and 180 minutes of ozonation. Residual ozone was removed from solution by purging with a gentle N2 stream for 1 min. Samples were kept in 2-mL vials and preserved at 5° C. if necessary prior to GC analysis. Qualitative and quantitative analyses of oil and oxidized oil were performed simultaneously. All samples were concentrated by a gentle stream of N2 gas to best retain the intermediates with lower molecular weights.

[2] = Mass and COD balance of PAH-packed column fed with ozonated water; details: pyrene-loaded column, 4 h ozonation
[3] = Saturated aqueous solution (dissolution equilibrium in water); details: equilibrium overnight, 0.45-μm filtered
[4] = Solubility and stability of O3 in aqueous and organic solvents; type: physicochemical; details: bipolar solvent versus water or heptane alone
Experimental: The amount of oil to be employed in the bipolar solution was determined by its solubility in n-heptane and bipolar solvent. With an addition of 2.5 ml of distilled deionized water (about 5%) to a homogenous solution 50 ml of n-heptane and 50 ml of acetic acid, the solution was separated into two distinct phases: the n-heptane containing PAHs and other hydrophobic intermediates, and acetic acid phase (95% of acetic acid/5% DD water) containing the hydrophilic byproducts. In this example, about 480 mg/L of oil in the bipolar solvent was ozonated for different durations and the solution contents were analyzed accordingly. Both byproducts in the n-heptane phase and in the 95% acetic acid phase were analyzed by GC/FID, GC/FPD, and GC/MS after the separation. Ozone stability in different solvents: bipolar solvent, n-heptane, 95% acetic acid/5% DD water, and pure acetic acid were also tested by stopping after 20 minutes of ozonation and monitoring the ozone concentration immediately after.
Ozone was generated by an ozone generator (Model T-816, Polymetrics Corp.) from dry and filtered air at an applied voltage of 65V an air flow rate of 2 L/min. The concentration of ozone in the bipolar solvent was determined by absorbance at 270 nm with a spectrophotometer (HP 8452 UV-Vis spectrophotometer, Hewlett Packard Co.) using a predetermined extinction coefficient of 1955 M^−1 cm^−1. […]

behaviour under ozonation in the bipolar solvent [1]: relatively resistant to ozonation
Compound: CCCCCCCCCCCCCCCCCCCC [nC20, Icosane]
tentative estimated pseudo-first-order rate constant k′ [1]: 0.00198 s⁻¹
tentative estimated pseudo-first-order rate constant k′ ([1]; listed as n-icosane): 0.00198 s⁻¹

Compound: c1cc2ccc3cccc4ccc(c1)c2c34 [Pyrene]
total amount degraded [2]: 0.365 mmol
saturated aqueous solution concentration [3]: 0.13 ppm

Compound: O=[O+][O-] [Ozone]
solubility and stability of O3 [4]: higher solubility and stability

behaviour under ozonation in the bipolar solvent [1]: relatively resistant to ozonation
Compound: CCC(C)CCCC(C)CCCC(C)CCCC(C)C (stereo not drawn) [Phytane]
tentative estimated pseudo-first-order rate constant k′ [1]: 0.0178 s⁻¹
tentative estimated pseudo-first-order rate constant k′ ([1]; listed as phytane): 0.0178 s⁻¹
